Results: article PMC4847155 (Biochemical Journal, 2016)
Counter-ions that a name gives are not always drawn. Like-named read-outs stand apart in the source and are kept apart here.

Columns and labels:
Wt BMK cells = assay: Live-cell imaging of cell death; assay type: cell-based, mouse; conditions: for effect on apoptosis of Wt compared with DKO cells (annexin V staining): Wt versus DKO BMK cells, among the five compounds
C126A Bax = C126A Bax (Homo sapiens, UniProt Q07812, C126A); conditions: mitochondria, 20 nM Bax, 10 μM compound
Bax [1] = target: T1, Bax (Homo sapiens, UniProt Q07812); assay type: biochemical; conditions: 100 nM Bax, 10 μM compound or 20 nM cBid/Bim, no membranes, DSS
[2] = test system: Bax−/− Bak−/− (DKO) BMK cells; assay: Live-cell imaging of cell death; assay type: cell-based, mouse; conditions: 24 h
Bax [3] = target: T1, Bax; assay: biochemical; assay type: biochemical
Bax [4] = target: T1, Bax; assay type: biochemical; conditions: 100 nM Bax, 10 μM compound, DSS
Bax [5] = target: T1, Bax; assay: biochemical

T1 sequence (Q07812 whole entry): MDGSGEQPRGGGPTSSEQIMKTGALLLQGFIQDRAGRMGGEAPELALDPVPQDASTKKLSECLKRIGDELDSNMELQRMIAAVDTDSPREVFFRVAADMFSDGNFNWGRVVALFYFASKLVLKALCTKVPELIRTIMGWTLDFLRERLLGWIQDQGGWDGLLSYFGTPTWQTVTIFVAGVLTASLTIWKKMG
Chain of C126A Bax (Q07812 whole entry C126A): as the sequence (Q07812 whole entry) above, with C126A counted along it

With `O=c1c2ccccc2[se]n1-c1ccccc1` [Ebselen, ebselen] the toxicity to cells (Wt BMK cells; Wt BMK cells, 24 h) was “not toxic”, the “activation of C126A Bax” value (C126A Bax) was “almost completely resistant” and the “formation of dimers and higher-order Bax oligomers in solution” value (Bax [1]) was “pronounced effects”. For the same compound, the toxicity to cells ([2]; DKO BMK cells) was “not toxic”.
With `CC(=O)[O][Hg][c]1ccccc1` [PMA, phenylmercuric acetate] the “effect on apoptosis of Wt compared with DKO cells (annexin V staining)” value (Wt BMK cells) was “most pronounced effects”, the EC50 (Bax [3]; read-out: EC50 in mitochondria, 20 nM Bax, mitochondria from Bax−/− Bak−/− BMK cells, Smac–mCherry release) was 1.3 µM and the “Bax oligomerization (higher-order complexes) in liposomes” value (Bax [4]) was “most pronounced effects”.
For `CC1=CC(=O)c2c(O)cccc2C1=O` [Plumbagin, plumbagin], the “effect on apoptosis of Wt compared with DKO cells (annexin V staining)” value (Wt BMK cells) was “most pronounced effects”, the EC50 (Bax [3]) was 1.5 µM and the EC50 (Bax [5]) was greater than 3 µM.
With `CC(C)N(CCC(=O)c1ccc2ccccc2c1)Cc1ccccc1` [ZM, ZM39923 hydrochloride] the EC50 (Wt BMK cells; Mus musculus, 24 h, read-out: EC50 of cell kill) was roughly 10 µM, the EC50 (Bax [3]) was 3.5 µM and the “activation of C126A Bax” value (C126A Bax) was “almost completely resistant”. The EC50 ([2]; Mus musculus, read-out: EC50 of cell kill) was roughly 10 µM and the EC50 (Bax [5]) was greater than 3 µM.
For “Bim: pro-apoptotic BH3 protein, recombinant, positive control for Bax oligomerization”, the “formation of dimers and higher-order Bax oligomers in solution” value (Bax [1]) was “no effects”.
